Test results from patent publication EP0531938B1, “Acrylic gel material and gel-based medical preparation for percutaneous absorption employing the same” (NITTO DENKO CORPORATION, priority 1991, dated 1993).

Assay: Solubility of drug in pressure-sensitive adhesive and in liquid component
Format: physicochemical
Settings: percent by weight

O=[N+]([O-])O[C@H]1CO[C@H]2[C@@H]1OC[C@H]2O[N+](=O)[O-] [isosorbide dinitrate]
solubility in the pressure-sensitive adhesive (adhesive of Comparative Example 15 (95 parts 2-ethylhexyl acrylate, 5 parts acrylic acid)): 7%
solubility in isopropyl myristate: 2.1%
